# Legend:
# Assay type in all cases: cell-based
# Raji [1] = experiment: Inhibition of 12-O-tetradecanoylphorbol-13-acetate induced EBV-early antigen activation in human Raji cells; details: human gammaherpesvirus 4
# [2] = Cytotoxicity against human Raji cells assessed as cell viability at 1000 molar ratio; details: read-out: Activity
# Raji [3] = experiment: Inhibition of 12-O-tetradecanoylphorbol-13-acetate induced EBV-early antigen activation in human Raji cells at 1000 molar ratio relative to control; parameters: scale not given: the % may be the effect or the level left; details: human gammaherpesvirus 4
# Raji [4] = experiment: Inhibition of 12-O-tetradecanoylphorbol-13-acetate induced EBV-early antigen activation in human Raji cells at 10 molar ratio relative to control; parameters: scale not given: the % may be the effect or the level left; details: human gammaherpesvirus 4
# Raji [5] = experiment: Inhibition of 12-O-tetradecanoylphorbol-13-acetate induced EBV-early antigen activation in human Raji cells at 500 molar ratio relative to control; parameters: scale not given: the % may be the effect or the level left; details: human gammaherpesvirus 4
# Raji [6] = experiment: Inhibition of 12-O-tetradecanoylphorbol-13-acetate induced EBV-early antigen activation in human Raji cells at 100 molar ratio relative to control; parameters: scale not given: the % may be the effect or the level left; details: human gammaherpesvirus 4
Compound,logIC50 (Raji [1]),viability at 1000 molar ratio [2] [%],Activity (Raji [3]) [%],Activity (Raji [4]) [%],Activity (Raji [5]) [%],Activity (Raji [6]) [%]
O=C1c2cccc(O)c2C(=O)c2c(O)cccc21,2.78,,,,,
COc1cc(C)cc2c1C(=O)c1c(O)cccc1C2=O,2.82,,,,,
Cc1cc(O)c2c(c1)C(=O)c1cc(O)cc(O)c1C2=O [EMODIN],2.48,70,1.5,91,24.8,51.6
COc1cc2c(c(OC)c1O)C(=O)c1c(ccc(C)c1O)C2=O,2.55,,,,,
COc1c(O)cc2c(c1O)C(=O)c1c(cc(C)c(O)c1OC)C2=O,2.72,,,,,
COc1cc(OC)c2c(c1)C(=O)c1cc(C)cc(O)c1C2=O,2.5,60,2.9,94.7,24.2,51.7
COc1c(O)c(C)cc2c1C(=O)c1c(O)cccc1C2=O [OBTUSIFOLIN],2.55,60,4.3,98.7,27.8,54.9
Cc1cc(O)c2c(c1)C(=O)c1cc(CO)c(-c3c(O)cc4c(c3O)C(=O)c3c(O)cccc3C4=O)c(O)c1C2=O,2.8,,,,,
COc1cc2c(c(OC)c1OC)C(=O)c1c(cc(C)c(O)c1OC)C2=O,2.73,,,,,
O=C1c2ccccc2C(=O)c2c(O)cccc21,2.77,,,,,
Cc1ccc2c(c1O)C(=O)c1ccccc1C2=O,2.72,,,,,
COc1cc(C)cc2c1C(=O)c1c(OC)cc(O)cc1C2=O,2.45,60,0,92.6,22,47.3
COc1cc(O)cc2c1C(=O)c1c(O)cc(C)cc1C2=O [QUESTIN],2.52,60,3.7,95.6,25.6,52.8
COc1cc(O)c2c(c1)C(=O)c1cc(C)cc(OC)c1C2=O,2.43,60,0,91.8,21.3,45.3
CC(=O)Oc1cc(O)cc2c1C(=O)c1c(O)cc(C)cc1C2=O,2.69,,,,,
O=C1c2ccc(O)cc2C(=O)c2ccc(O)cc21,2.88,,,,,
O=C1c2cccc(O)c2C(=O)c2c(O)cc(CO)cc21,2.66,,,,,

Compound,logIC50 (Raji [1]),viability at 1000 molar ratio [2] [%],Activity (Raji [3]) [%],Activity (Raji [4]) [%],Activity (Raji [5]) [%],Activity (Raji [6]) [%]
COc1cc2c(c(O)c1C)C(=O)c1c(O)cc(C)cc1C2=O,2.48,60,1.2,93,23.2,50
COc1cc(OC)c2c(c1)C(=O)c1cc(C)cc(OC)c1C2=O,2.41,60,0,90.1,21.1,44
Cc1cc2c(c(O)c1-c1c(C)cc3c(c1O)C(=O)c1c(O)cccc1C3=O)C(=O)c1c(O)cccc1C2=O,2.86,,,,,
COc1cc2c(c(O)c1OC)C(=O)c1c(cc(C)c(O)c1OC)C2=O,2.73,,,,,
O=C1c2cccc(O)c2C(=O)c2c1cc(CO)c(-c1c(CO)cc3c(c1O)C(=O)c1c(O)cccc1C3=O)c2O,2.78,,,,,
Cc1ccc2c(c1)C(=O)c1ccccc1C2=O,2.66,,,,,
COc1cc(C)cc2c1C(=O)c1c(O)cc(O)cc1C2=O [1-O-METHYLEMODIN],2.49,60,1.1,94.1,24.1,49.8
O=C1c2ccccc2C(=O)c2ccccc21,3.04,,,,,
CC(=O)Oc1cc(OC(C)=O)c2c(c1)C(=O)c1cc(C(=O)O)cc(OC(C)=O)c1C2=O,2.66,,,,,
COc1cc(O)c2c(c1)C(=O)c1cc(C)cc(O)c1C2=O [PHYSCION],2.5,60,1.5,94.2,24.7,51.1
Cc1cc(O)c2c(c1)C(=O)c1cccc(O)c1C2=O,2.68,,,,,
CC(=O)Oc1cc(OC(C)=O)c2c(c1)C(=O)c1cc(C)cc(OC(C)=O)c1C2=O,2.67,,,,,
CC(=O)Oc1cc(C)cc2c1C(=O)c1c(OC(C)=O)cc(O)cc1C2=O,2.7,,,,,
CCc1ccc2c(c1)C(=O)c1ccccc1C2=O,2.7,,,,,
Cc1cc2c(c(O)c1-c1c(C)cc3c(c1O)C(=O)c1c(O)cc(O)cc1C3=O)C(=O)c1c(O)cccc1C2=O,2.8,,,,,
Cc1cc2c(c(O)c1-c1c(C)cc3c(c1O)C(=O)c1c(O)cc(O)cc1C3=O)C(=O)c1c(O)cc(O)cc1C2=O,2.7,,,,,
Cc1cc(O)c2c(c1)C(=O)c1cc(O)c(-c3c(C)cc4c(c3O)C(=O)c3c(O)cccc3C4=O)c(O)c1C2=O,2.83,,,,,

# Source: ChEMBL document CHEMBL1158165, “Correlation between reduction potentials and inhibitions of Epstein-Barr virus activation by anthraquinone derivatives” (Bioorg Med Chem Lett, 2008)
